The source of these data is patent publication US11964953B2, “Substituted aminothiazoles as DGKzeta inhibitors for immune activation” (Bayer Aktiengesellschaft, priority 2020, dated 2024).

One may read the IC50 as the point on the concentration scale where inhibition reaches its midpoint.

Sequence of human DGKζ (Q13574 other isoform, or with tags, fused parts or gaps): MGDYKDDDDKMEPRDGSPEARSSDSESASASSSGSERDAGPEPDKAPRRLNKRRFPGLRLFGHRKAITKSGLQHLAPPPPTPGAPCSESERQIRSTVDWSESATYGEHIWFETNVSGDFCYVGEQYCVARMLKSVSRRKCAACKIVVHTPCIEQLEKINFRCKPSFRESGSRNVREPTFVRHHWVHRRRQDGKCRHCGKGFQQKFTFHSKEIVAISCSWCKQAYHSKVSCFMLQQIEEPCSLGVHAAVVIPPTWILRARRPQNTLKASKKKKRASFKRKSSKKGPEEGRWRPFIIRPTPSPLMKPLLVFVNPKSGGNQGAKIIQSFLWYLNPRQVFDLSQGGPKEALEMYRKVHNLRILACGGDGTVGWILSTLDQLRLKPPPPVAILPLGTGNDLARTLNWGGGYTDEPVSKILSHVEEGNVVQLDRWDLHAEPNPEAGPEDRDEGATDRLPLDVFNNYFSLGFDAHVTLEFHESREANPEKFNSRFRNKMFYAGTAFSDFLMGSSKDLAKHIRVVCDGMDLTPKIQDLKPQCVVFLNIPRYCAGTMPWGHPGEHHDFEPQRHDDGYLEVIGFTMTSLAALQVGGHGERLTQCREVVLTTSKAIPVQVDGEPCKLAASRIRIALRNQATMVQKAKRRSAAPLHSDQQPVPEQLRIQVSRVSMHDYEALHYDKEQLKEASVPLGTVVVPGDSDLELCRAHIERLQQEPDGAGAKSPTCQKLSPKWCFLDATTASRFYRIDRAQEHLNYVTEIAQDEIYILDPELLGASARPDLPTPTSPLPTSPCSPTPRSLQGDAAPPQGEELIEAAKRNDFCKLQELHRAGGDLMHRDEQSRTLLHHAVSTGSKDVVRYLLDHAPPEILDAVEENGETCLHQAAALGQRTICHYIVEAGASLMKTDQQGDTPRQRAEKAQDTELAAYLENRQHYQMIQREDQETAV

In the assay the target is human DGKζ (Homo sapiens (Human), UniProt Q13574). The assay is described as follows: Human DGKζ kinase activity inhibition assay (ADP-Glo). The format is biochemical. As to conditions: in vitro human DGKζ kinase activity inhibition assay; read-out: IC50. In outline:
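ADP-Glo luminescence, reflecting ADP produced, served as the readout of activity. Full-length human DGKζ, FLAG-tagged at the C-terminus and insect-cell expressed, was used; lipid substrate mix was sonicated with octyl-β-D-glucopyranoside in 50 mM MOPS pH 7.4.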
(ADP-Glo turns the ADP formed in a reaction into a luminescent signal.)
For `Cc1cccc(N(c2nc(N)c(C(=O)c3ccccc3)s2)C(C)C(N)=O)c1` (single isomer, unassigned) [Example 76.1, 2-(N-(4-amino-5-benzoyl-thiazol-2-yl)-3-methyl-anilino)propanamide], the half-inhibitory concentration (IC50) is 114 nM.

Take `Cc1ccccc1N(c1nc(N)c(C(=O)c2ccccc2)s1)C(C)C(N)=O` (single isomer, unassigned) [Example 77.1, 2-(N-(4-amino-5-benzoyl-thiazol-2-yl)-2-methyl-anilino)propanamide]: the IC50 stood at 234 nM.

For the compound `Cc1ccccc1N(c1nc(N)c(C(=O)c2ccccc2)s1)C(C)C(N)=O` (single isomer, unassigned) [Example 77.2, 2-(N-(4-amino-5-benzoyl-thiazol-2-yl)-2-methyl-anilino)propanamide], the 50% inhibitory concentration (IC50) came out at 10200 nM.

Take `CC(C(N)=O)N(c1cnn(C)c1)c1nc(N)c(C(=O)c2ccccc2)s1` (single isomer, unassigned) [Example 78.1, 2-[(4-amino-5-benzoyl-thiazol-2-yl)-(1-methylpyrazol-4-yl)amino]propanamide]: the IC50 is more than 20000 nM.

As for `CC(C(N)=O)N(c1cnn(C)c1)c1nc(N)c(C(=O)c2ccccc2)s1` (single isomer, unassigned) [Example 78.2, 2-[(4-amino-5-benzoyl-thiazol-2-yl)-(1-methylpyrazol-4-yl)amino]propanamide], the IC50 amounted to 7550 nM.

As to `CC(C(N)=O)N(c1cccnc1)c1nc(N)c(C(=O)c2ccccc2)s1` (single isomer, unassigned) [Example 79.1, 2-[(4-amino-5-benzoyl-thiazol-2-yl)-(3-pyridyl)amino]propanamide], the IC50 was 1660 nM.

Turning to `CC(C(N)=O)N(c1cccnc1)c1nc(N)c(C(=O)c2ccccc2)s1` (single isomer, unassigned) [Example 79.2, 2-[(4-amino-5-benzoyl-thiazol-2-yl)-(3-pyridyl)amino]propanamide], the IC50 is 2390 nM.

Turning to `CC(C(N)=O)N(c1ccc(F)cc1)c1nc(N)c(C(=O)c2ccc(OCC(=O)NC34CC5CC(CC(C5)C3)C4)cc2)s1` (single isomer, unassigned) [Example 142, 2-(N-[5-[4-[2-(1-adamantylamino)-2-oxo-ethoxy]benzoyl]-4-amino-thiazol-2-yl]-4-fluoro-anilino)propanamide], the IC50 was 14.5 nM.

For `CC(C(N)=O)N(c1ccc(F)c(Cl)c1)c1nc(N)c(C(=O)c2ccncc2)s1` (single isomer, unassigned) [Example 160.2, 2-(N-[4-amino-5-(pyridine-4-carbonyl)thiazol-2-yl]-3-chloro-4-fluoro-anilino)propanamide], the IC50 was determined as 8450 nM.

As to `COc1ccc(C(=O)c2sc(N(c3ccc(F)c(Cl)c3)C(C)C(N)=O)nc2N)cc1` (single isomer, unassigned) [Example 161.1, 2-(N-[4-amino-5-(4-methoxybenzoyl)thiazol-2-yl]-3-chloro-4-fluoro-anilino)propanamide], the concentration for half-maximal inhibition (IC50) is 9 nM.

Regarding `COc1ccc(C(=O)c2sc(N(c3ccc(F)c(Cl)c3)C(C)C(N)=O)nc2N)cc1` (single isomer, unassigned) [Example 161.2, 2-(N-[4-amino-5-(4-methoxybenzoyl)thiazol-2-yl]-3-chloro-4-fluoro-anilino)propanamide], the IC50 stood at 2570 nM.

As for `CC(C(N)=O)N(c1ccc(F)cc1)c1nc(N)c(C(=O)c2ccc(OC(F)F)nc2)s1` (single isomer, unassigned) [Example 162.1, 2-(N-[4-amino-5-[6-(difluoromethoxy)pyridine-3-carbonyl]thiazol-2-yl]-4-fluoro-anilino)propanamide], the IC50 was determined as 12 nM.

For the compound `CC(C(N)=O)N(c1ccc(F)cc1)c1nc(N)c(C(=O)c2ccc(OC(F)F)nc2)s1` (single isomer, unassigned) [Example 162.2, 2-(N-[4-amino-5-[6-(difluoromethoxy)pyridine-3-carbonyl]thiazol-2-yl]-4-fluoro-anilino)propanamide], the half-maximal inhibitory concentration (IC50) came out at 6570 nM.

In the case of `CC(C(N)=O)N(c1ccc(F)c(F)c1)c1nc(N)c(C(=O)c2ccc(OC(F)F)nc2)s1` (single isomer, unassigned) [Example 163.2, 2-(N-[4-amino-5-[6-(difluoromethoxy)pyridine-3-carbonyl]thiazol-2-yl]-3,4-difluoro-anilino)propanamide], the IC50 was 1090 nM.

As for `CC(C(N)=O)N(c1ccc(Cl)c(F)c1)c1nc(N)c(C(=O)c2ccc(OC(F)F)nc2)s1` (single isomer, unassigned) [Example 164.1, 2-(N-[4-amino-5-[6-(difluoromethoxy)pyridine-3-carbonyl]thiazol-2-yl]-4-chloro-3-fluoro-anilino)propanamide], the half-inhibitory concentration (IC50) was 5 nM.

As for `CC(C(N)=O)N(c1ccc(F)c(F)c1)c1nc(N)c(C(=O)c2ccc(OCc3ccccc3)cc2)s1` (single isomer, unassigned) [Example 165.1, 2-(N-[4-amino-5-(4-benzyloxybenzoyl)thiazol-2-yl]-3,4-difluoro-anilino)propanamide], the half-maximal inhibitory concentration (IC50) worked out at 2 nM.

For the compound `CC(C(N)=O)N(c1ccc(F)c(F)c1)c1nc(N)c(C(=O)c2ccc(OCc3ccccc3)cc2)s1` (single isomer, unassigned) [Example 165.2, 2-(N-[4-amino-5-(4-benzyloxybenzoyl)thiazol-2-yl]-3,4-difluoro-anilino)propanamide], the IC50 was found to be 331 nM.

Take `CC(C(N)=O)N(c1ccc(Cl)c(F)c1)c1nc(N)c(C(=O)c2ccc(OCc3ccccc3)cc2)s1` (single isomer, unassigned) [Example 166.2, 2-(N-[4-amino-5-(4-benzyloxybenzoyl)thiazol-2-yl]-4-chloro-3-fluoro-anilino)propanamide]: the IC50 is 129 nM.

Consider `CC(C(N)=O)N(c1ccc(F)c(F)c1)c1nc(N)c(C(=O)c2ccc(NC(=O)OCc3ccccc3)cc2)s1` (single isomer, unassigned) [Example 167.2, Benzyl N-[4-[4-amino-2-(N-(2-amino-1-methyl-2-oxo-ethyl)-3,4-difluoro-anilino)thiazole-5-carbonyl]phenyl]carbamate], for which the IC50 came out at 303 nM.

As to `CC(C(N)=O)N(c1ccc(F)cc1)c1nc(N)c(C(=O)c2ccc(NC(=O)OCc3ccccc3)cc2)s1` (single isomer, unassigned) [Example 169.1, Benzyl N-[4-[4-amino-2-(N-(2-amino-1-methyl-2-oxo-ethyl)-4-fluoro-anilino)thiazole-5-carbonyl]phenyl]carbamate], the IC50 amounted to 3 nM.

Turning to `CC(C(N)=O)N(c1ccc(F)cc1)c1nc(N)c(C(=O)c2ccc(NC(=O)OCc3ccccc3)cc2)s1` (single isomer, unassigned) [Example 169.2, Benzyl N-[4-[4-amino-2-(N-(2-amino-1-methyl-2-oxo-ethyl)-4-fluoro-anilino)thiazole-5-carbonyl]phenyl]carbamate], the IC50 stood at 859 nM.

In the case of `CC(C(N)=O)N(c1ccc(F)cc1)c1nc(N)c(C(=O)c2ccc(OCc3ccccc3)cc2)s1` (single isomer, unassigned) [Example 170.1, 2-(N-[4-amino-5-(4-benzyloxybenzoyl)thiazol-2-yl]-4-fluoro-anilino)propanamide], the IC50 was 5 nM.

As for `COc1ccc(C(=O)c2sc(N(c3ccc(Cl)c(F)c3)C(C)C(N)=O)nc2N)cn1` (single isomer, unassigned) [Example 172.2, 2-(N-[4-amino-5-(6-methoxypyridine-3-carbonyl)thiazol-2-yl]-4-chloro-3-fluoro-anilino)propanamide], the IC50 came to 4890 nM.

As to `COc1ccc(N(c2nc(N)c(C(=O)c3ccc(OC(F)F)cc3)s2)C(C)C(N)=O)cc1` (single isomer, unassigned) [Example 174.1, 2-(N-[4-amino-5-[4-(difluoromethoxy)benzoyl]thiazol-2-yl]-4-methoxy-anilino)propanamide], the IC50 worked out at 26 nM.

As to `COc1ccc(N(c2nc(N)c(C(=O)c3ccc(OC(F)F)cc3)s2)C(C)C(N)=O)cc1` (single isomer, unassigned) [Example 174.2, 2-(N-[4-amino-5-[4-(difluoromethoxy)benzoyl]thiazol-2-yl]-4-methoxy-anilino)propanamide], the IC50 worked out at 3790 nM.

As for `COc1ccc(C(=O)c2sc(N(c3ccc(F)cc3)C(C)C(N)=O)nc2C)cc1` (single isomer, unassigned) [Example 176.2, 2-(4-fluoro-N-[5-(4-methoxybenzoyl)-4-methyl-thiazol-2-yl]anilino)propanamide], the IC50 amounted to 672 nM.

Regarding `CC(C(N)=O)N(c1ccc(OCc2ccccc2)cc1)c1nc(N)c(C(=O)c2ccc(OC(F)F)cc2)s1` (single isomer, unassigned) [Example 182.1, 2-(N-[4-amino-5-[4-(difluoromethoxy)benzoyl]thiazol-2-yl]-4-benzyloxy-anilino)propanamide], the IC50 is 84 nM.

With `CC(C(N)=O)N(c1ccc(OCc2ccccc2)cc1)c1nc(N)c(C(=O)c2ccc(OC(F)F)cc2)s1` (single isomer, unassigned) [Example 182.2, 2-(N-[4-amino-5-[4-(difluoromethoxy)benzoyl]thiazol-2-yl]-4-benzyloxy-anilino)propanamide], the IC50 is 10500 nM.

Turning to `CC(C(N)=O)N(c1ccc(F)c(F)c1)c1nc(N)c(C(=O)c2cccnc2)s1` (single isomer, unassigned) [Example 184.1, 2-(N-[4-amino-5-(pyridine-3-carbonyl)thiazol-2-yl]-3,4-difluoro-anilino)propanamide], the IC50 was determined as 297 nM.

As to `CC(C(N)=O)N(c1ccc(F)c(F)c1)c1nc(N)c(C(=O)c2cccnc2)s1` (single isomer, unassigned) [Example 184.2, 2-(N-[4-amino-5-(pyridine-3-carbonyl)thiazol-2-yl]-3,4-difluoro-anilino)propanamide], the IC50 is more than 20000 nM.

Consider `Cc1cc(C(=O)c2sc(N(c3ccc(F)cc3)C(C)C(N)=O)nc2N)ccn1` (single isomer, unassigned) [Example 187.1, 2-(N-[4-amino-5-(2-methylpyridine-4-carbonyl)thiazol-2-yl]-4-fluoro-anilino)propanamide], for which the IC50 was found to be 553 nM.
